“Also recorded” adds a separate entry of the source. Like-named read-outs stand apart in the source and are kept apart here. Non-standard residues stand in square brackets, D forms with d. Residues, ends and D or L forms follow the SMILES beside them. *: point of attachment. Phenylacetyl(2,3,4,5,6-F5) = O=C(Cc1c(F)c(F)c(F)c(F)c1F)*; Phe(F5) = N[C@@H](Cc1c(F)c(F)c(F)c(F)c1F)C(=O)O; Phe(4-Cl) = N[C@@H](Cc1ccc(Cl)cc1)C(=O)O; hArg = N=C(N)NCCCC[C@H](N)C(=O)O; 12Ado = NCCCCCCCCCCCC(=O)O; Nle = CCCC[C@H](N)C(=O)O; Orn = NCCC[C@H](N)C(=O)O; Abu = CC[C@H](N)C(=O)O; PhAc = O=C(Cc1ccccc1)*
Columns and labels:
[1] = test system: CFPAC-1 pancreatic cancer cells; experiment: In vitro cell viability, CFPAC-1; assay type: cell-based, human; details: antagonist 5 μM for 72 h, cell proliferation assay; MIA602 = 1
Protocol: (§1) The inhibitory effects of the various synthesized GHRH antagonists were tested in cell proliferation assays in various human cancer cell lines including stomach cancer (KATOIII, N87), colon cancer (HT-29), urothelial cancer (J82, RT4), pancreatic cancer (PANC-1, CFPAC-1), prostatic cancer (PC3), breast cancer (MX-1, HCC1806), ovarian cancer (SK-OV-3, OVCAR-3) and lung cancer (HCC827, H460).
(§2) Cell culture. Human cancer cell lines including pancreatic (PANC-1 and CFPAC-1), lung (HCC827 and H460), stomach (NCI-N87 and KATOIII), urothelial (J82, RT4), prostatic (PC3), breast (MX-1 and HCC 1806), colorectal (HT-29), and ovarian (SK-OV-3 and OVCAR-3) were obtained from the American Type Culture Collection (ATCC) and cultured at 37° C. in a humidified 95% air/5% CO2 atmosphere in the medium recommended by ATCC.
(§3) In vitro cell viability. Cell viability was analyzed as follows: cancer cells including pancreatic (PANC-1 and CFPAC-1), lung (HCC827 and H460), stomach (NCI-N87 and KATOIII), urothelial (J82, RT4), prostatic (PC3) and breast (MX-1 and HCC 1806), colorectal (HT-29) and ovarian (SK-OV-3 and OVCAR-3) were grown on 96 well plates to ˜60% confluence, the cells were starved for 24 h in culture medium containing 0.5% FBS. Cells were then treated with GHRH antagonists MIA602 AVR compounds at concentrations of 1, 2.5 or 5 μM, or vehicle (0.1% DMSO) in quintuplicates for 72 hours. The medium was replaced every 48 hours. Cell viability was measured using CellTiter 96 aqueous one solution kit (Promega). Inhibitory effects of tested AVR compounds in comparison to that of MIA602 are presented as inhibitory potency.
(§4) Inhibitory effects of selected AVR compounds in comparison to that of MIA602 are presented as inhibitory potency (e.g., percentage of inhibition). […] The cell lines tested including lung cancer HCC827 (FIG. 2A), pancreatic cancer CFPAC-1 (FIG. 2B), stomach cancer N87 (FIG. 2C), colon cancer HT-29 (FIG. 2D), breast cancers MX-1 and HCC1806 (FIGS. 2 E, F). Based on the results of cell proliferation assay after cancer cells were treated with antagonist at concentration of 5 μM for 72H, the relative inhibitory potency of AVR antagonists in comparison to MIA-602 is summarized in Table 3 A and B. Over 60 AVR compounds were tested in 12 cancer cell lines.
(§5) Based on the results of cell proliferation assay after cancer cells were treated with antagonist at concentration of 5 µM for 72H, * at concentration of 2 µM for 72 H.

HCC827 lung cancer cells = experiment: In vitro cell viability, HCC827; assay type: cell-based, human; details: antagonist 5 μM for 72 h, cell proliferation assay; MIA602 = 1
Protocol: as §1, §2, §3, §4, §5

[2] = biological target: T1, membrane GHRH-receptors on human anterior pituitary cells (Homo sapiens, UniProt Q02643); experiment: Receptor binding, displacement of 125I-[His1,Nle27]-hGH-RH(1-32)NH2 on human pituitary membranes
T1 construct: Human pituitary was purchased from the National Hormone and Peptide Program; tissue National Hormone and Peptide Program; host or cells: human pituitary (membrane fractions)
T1 sequence (Q02643 23-423): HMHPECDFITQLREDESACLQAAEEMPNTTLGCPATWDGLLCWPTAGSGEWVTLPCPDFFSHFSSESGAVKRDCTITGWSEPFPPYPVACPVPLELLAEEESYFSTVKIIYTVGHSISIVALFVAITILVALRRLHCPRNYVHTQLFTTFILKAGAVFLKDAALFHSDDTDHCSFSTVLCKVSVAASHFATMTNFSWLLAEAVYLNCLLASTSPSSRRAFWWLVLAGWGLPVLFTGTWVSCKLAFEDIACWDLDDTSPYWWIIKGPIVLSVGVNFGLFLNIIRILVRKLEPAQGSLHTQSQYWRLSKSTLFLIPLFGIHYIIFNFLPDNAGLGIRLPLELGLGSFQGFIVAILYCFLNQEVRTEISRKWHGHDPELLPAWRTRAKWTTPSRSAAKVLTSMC
Protocol: Receptor binding affinities in vitro. Preparation of human pituitary membrane fractions and receptor binding of analogs of GH-RH were performed (Halmos G, Rekasi Z, Szoke B, Schally A V. (1993) Receptor 3:87-97). Human pituitary was purchased from the National Hormone and Peptide Program. […] Relative affinities compared to hGH-RH(1-29)NH2 were calculated as the ratio of IC50 (dose causing 50% inhibition of specific binding to receptors) of the tested peptides to the IC50 of hGH-RH(1-29)NH2. The values were calculated from technical duplicate tubes.
Nineteen new AVR analogs of GHRH were tested in the receptor binding assay. Table 6 presents the IC50 values of GHRH antagonists to membrane GHRH-receptors binding on human anterior pituitary cells.

[3] = test system: KATOIII stomach cancer cells; experiment: In vitro cell viability, KATOIII; assay type: cell-based, human; details: antagonist 5 μM for 72 h, cell proliferation assay; MIA602 = 1
Protocol: as §1, §2, §3, §4

[4] = membrane receptors on human anterior pituitary cells, mean of two to three determinations, read-out: IC50

`CCCC[C@H](NC(=O)[C@@H](NC(=O)[C@H](CC(=O)O)NC(=O)[C@H](CCC(N)=O)NC(=O)[C@H](CC(C)C)NC(=O)[C@H](CC(C)C)NC(=O)[C@H](CCCN)NC(=O)[C@H](Cc1c[nH]cn1)NC(=O)[C@H](C)NC(=O)[C@H](CO)NC(=O)[C@H](CC(C)C)NC(=O)[C@H](CCC(N)=O)NC(=O)[C@H](CC)NC(=O)[C@H](CC(C)C)NC(=O)[C@@H](NC(=O)[C@H](CCCN)NC(=O)[C@H](Cc1c[nH]cn1)NC(=O)[C@H](Cc1c(F)c(F)c(F)c(F)c1F)NC(=O)[C@H](CCCCNC(=N)N)NC(=O)[C@H](C)NC(=O)[C@@H](NC(=O)[C@H](Cc1ccc(Cl)cc1)NC(=O)[C@@H](NC(=O)[C@H](C)NC(=O)[C@H](CC(=O)O)NC(=O)[C@@H](CCCNC(=N)N)NC(=O)[C@H](Cc1ccc(O)cc1)NC(=O)CCCCCCCCCCCNC(=O)Cc1c(F)c(F)c(F)c(F)c1F)[C@@H](C)CC)[C@@H](C)O)C(C)C)[C@@H](C)CC)C(=O)N[C@H](CCCNC(=N)N)C(=O)N[C@@H](CCCCNC(=N)N)C(=O)NCCCCCCCCCCCC(N)=O` [AVR-552, 5FPhAC-Ada-Tyr-DArg-Asp-Ala-Ile-Cpa-Thr-Ala-Har-5FPhe-His-Orn-Val-Leu-Abu-Gln-Leu-Ser-Ala-His-Orn-Leu-Leu-Gln-Asp-Ile-Nle-DArg-Har-Ada-NH2] ({Phenylacetyl(2,3,4,5,6-F5)-12Ado}-Y[dR]DAI[Phe(4-Cl)]TA[hArg][Phe(F5)]H[Orn]VL[Abu]QLSAH[Orn]LLQDI[Nle][dR][hArg][12Ado]-NH2) was tested, and the “relative inhibitory potency in comparison to MIA-602, Pancreatic CFPAC-1” value [1] was 1.57, the “relative inhibitory potency in comparison to MIA-602, Lung IICC827” value (HCC827 lung cancer cells) was 4.376 and the “binding affinity to membrane receptors of human pituitary cells (in words)” value ([2]; competitive binding, human pituitary membrane fractions) was “higher binding affinity in comparison to MIA-602; also recorded: highest binding affinities”. The IC50 [2, 4] was 0.17 nM.

For `CCCC[C@H](NC(=O)[C@@H](NC(=O)[C@H](CC(=O)O)NC(=O)[C@H](CCC(N)=O)NC(=O)[C@H](CC(C)C)NC(=O)[C@H](CC(C)C)NC(=O)[C@H](CCCN)NC(=O)[C@H](Cc1c[nH]cn1)NC(=O)[C@H](C)NC(=O)[C@H](CO)NC(=O)[C@H](CC(C)C)NC(=O)[C@H](CCC(N)=O)NC(=O)[C@H](CC)NC(=O)[C@H](CC(C)C)NC(=O)[C@@H](NC(=O)[C@H](CCCN)NC(=O)[C@H](Cc1c[nH]cn1)NC(=O)[C@H](Cc1c(F)c(F)c(F)c(F)c1F)NC(=O)[C@H](CCCCNC(=N)N)NC(=O)[C@H](C)NC(=O)[C@@H](NC(=O)[C@H](Cc1ccc(Cl)cc1)NC(=O)[C@@H](NC(=O)[C@H](C)NC(=O)[C@H](CC(=O)O)NC(=O)[C@@H](CCCNC(=N)N)NC(=O)[C@H](Cc1ccc(O)cc1)NC(=O)CCCCCCCCCCCNC(=O)Cc1c(F)c(F)c(F)c(F)c1F)[C@@H](C)CC)[C@@H](C)O)C(C)C)[C@@H](C)CC)C(=O)N[C@H](CCCNC(=N)N)C(=O)N[C@@H](CCCCNC(=N)N)C(=O)NC` [AVR-542, 5FPhAC-Ada-Tyr-DArg-Asp-Ala-Ile-Cpa-Thr-Ala-Har-5FPhe-His-Orn-Val-Leu-Abu-Gln-Leu-Ser-Ala-His-Orn-Leu-Leu-Gln-Asp-Ile-Nle-DArg-Har-NHCH3] ({Phenylacetyl(2,3,4,5,6-F5)-12Ado}-Y[dR]DAI[Phe(4-Cl)]TA[hArg][Phe(F5)]H[Orn]VL[Abu]QLSAH[Orn]LLQDI[Nle][dR][hArg]-NHMe), the “relative inhibitory potency in comparison to MIA-602, Pancreatic CFPAC-1” value [1] was 1.312 and the “relative inhibitory potency in comparison to MIA-602, Lung IICC827” value (HCC827 lung cancer cells) was 2.649.

With `CCCC[C@H](NC(=O)[C@@H](NC(=O)[C@H](CC(=O)O)NC(=O)[C@H](CCC(N)=O)NC(=O)[C@H](CC(C)C)NC(=O)[C@H](CC(C)C)NC(=O)[C@H](CCCCN)NC(=O)[C@H](CCCNC(=N)N)NC(=O)[C@H](C)NC(=O)[C@H](CO)NC(=O)[C@H](CC(C)C)NC(=O)[C@H](CCC(N)=O)NC(=O)[C@H](CC)NC(=O)[C@H](CC(C)C)NC(=O)[C@@H](NC(=O)[C@H](CCCCN)NC(=O)[C@H](CCCNC(=N)N)NC(=O)[C@H](Cc1ccc(OC)cc1)NC(=O)[C@H](CCCCNC(=N)N)NC(=O)[C@H](CC(N)=O)NC(=O)[C@@H](NC(=O)[C@H](Cc1ccc(Cl)cc1)NC(=O)[C@@H](NC(=O)[C@H](C)NC(=O)[C@H](CC(=O)O)NC(=O)[C@@H](CCCNC(=N)N)NC(=O)[C@H](Cc1ccc(O)cc1)NC(=O)CCCCCCCCCCCNC(=O)Cc1ccccc1)[C@@H](C)CC)[C@@H](C)O)C(C)C)[C@@H](C)CC)C(=O)N[C@H](CCCNC(=N)N)C(=O)N[C@@H](CCCCNC(=N)N)C(=O)NCCCCCCCCCCCC(N)=O` [AVR-332] ({PhAc-12Ado}-Y[dR]DAI[Phe(4-Cl)]TN[hArg]Y(Me)RKVL[Abu]QLSARKLLQDI[Nle][dR][hArg][12Ado]-NH2) the IC50 [2, 4] was 0.34 nM and the “relative inhibitory potency in comparison to MIA-602, Stomach KATOIII” value [3] was 1.643.

In the case of `CCCC[C@H](NC(=O)[C@@H](NC(=O)[C@H](CC(=O)O)NC(=O)[C@H](CCC(N)=O)NC(=O)[C@H](CC(C)C)NC(=O)[C@H](CC(C)C)NC(=O)[C@H](CCCN)NC(=O)[C@H](Cc1c[nH]cn1)NC(=O)[C@H](C)NC(=O)[C@H](CO)NC(=O)[C@H](CC(C)C)NC(=O)[C@H](CCC(N)=O)NC(=O)[C@H](CC)NC(=O)[C@H](CC(C)C)NC(=O)[C@@H](NC(=O)[C@H](CCCN)NC(=O)[C@H](Cc1c[nH]cn1)NC(=O)[C@H](Cc1c(F)c(F)c(F)c(F)c1F)NC(=O)[C@H](CCCCNC(=N)N)NC(=O)[C@H](C)NC(=O)[C@@H](NC(=O)[C@H](Cc1ccc(Cl)cc1)NC(=O)[C@@H](NC(=O)[C@H](C)NC(=O)[C@H](CC(=O)O)NC(=O)[C@@H](CCCNC(=N)N)NC(=O)[C@H](Cc1ccc(O)cc1)NC(=O)CCCCCCCCCCCNC(=O)Cc1ccccc1)[C@@H](C)CC)[C@@H](C)O)C(C)C)[C@@H](C)CC)C(=O)N[C@H](CCCNC(=N)N)C(=O)N[C@@H](CCCCNC(=N)N)C(N)=O` [MIA-690, reference compound] ({PhAc-12Ado}-Y[dR]DAI[Phe(4-Cl)]TA[hArg][Phe(F5)]H[Orn]VL[Abu]QLSAH[Orn]LLQDI[Nle][dR][hArg]-NH2), the IC50 [2] is reported as 0.53 nM.

Source: US20210395327A1, “Growth Hormone-Releasing Hormone Antagonists and Uses Thereof” (United States Government As Represented By The Department …, priority 2019, published 2021)
